Assay results: article PMC8583417, “Evaluation of the Antimicrobial Efficacy of N-Acetyl-L-Cysteine, Rhamnolipids, and Usnic Acid—Novel Approaches to Fight Food-Borne Pathogens” (International Journal of Molecular Sciences, 2021)

Key:
[1] = tested on: L. monocytogenes 164; assay: MIC for biofilm metabolic activity (MTT reduction assay); assay type: cell-based, Listeria monocytogenes; details: ≥80% inhibition, 24 h
Experimental: (§1) Ten concentrations of NAC, RLs, and UA were tested to determine the minimum inhibitory concentration for planktonic growth, and subsequently, the six highest concentrations were applied on preformed biofilms to evaluate the biofilm eradication ability of the compounds. MIC was defined as the lowest substance concentration able to inhibit at least 80% of microbial growth (MICPC80 for planktonic cells, MICBC80 for further growth of biofilm cells), inhibit 80% of metabolic activity (MICBM80 for biofilm metabolic activity, MICMPB80 for metabolic activity of preformed biofilm), prevent biofilm formation by at least 80% (MICBF80 for biofilm formation), or reduce a preformed biofilm by at least 80% (MICBR80 for biofilm reduction). The results of MICs are summarized in Table 1 (planktonic cells) and Table 2 (biofilm-associated cells).
(§2) The determination of MICs was performed according to Chlumsky et al.. Briefly, 96-well flat-bottomed microtiter plates were inoculated with 75 µL (for biofilm formation) or 100 µL (for preformed biofilm) of bacterial suspension (A625nm 0.08 to 0.1) in technical triplicates and were then carefully mixed with the dilution series of the test substances (24 h cultivation at 25 °C for S. Infantis, 37 °C for other strains) or were directly cultivated to preform biofilms (18 h). For a positive control of bacterial growth, the inoculum was mixed with a pure sterile medium. […] To evaluate planktonic cells growth (MICPC80) and further growth of biofilm cells (MICBC80), the optical density of the content of the microtiter plates was measured spectrophotometrically at 625 nm before and after 24 h (for biofilm formation) of cultivation or before and after additional 20 h incubation with the tested compound (for preformed biofilm). […] To evaluate the inhibition of biofilm formation (MICBF80) and reduction in preformed biofilms (MICBR80), biomass was quantified using crystal violet staining, and its metabolic activity (MICBM80 and MICMPB80) was estimated by using the MTT (thiazyl tetrazolium bromide, Sigma-Aldrich, USA) reduction assay, both measured spectrophotometrically at 595 nm.
(§3) All inhibitions were calculated using the formula of Chlumsky et al. below (Equation (1)):(1) A625(595)nm inhibition (%)=A625(595)nm (control) – A625(595)nm(natural substance)/A625(595)nm (control)× 100 where A625(595)nm (control) is the absorbance of bacterial suspension/biofilm itself, and A625(595)nm(natural substance) is the absorbance of the bacterial suspension/biofilm with the added natural substance (NAC, RLs, and UA).
(§4) When the minimum inhibitory concentration could not be determined, the MIC was established as >the highest tested concentration for NAC, RLs, and UA.

[2] = tested on: L. monocytogenes 149; assay: as above; assay type: cell-based, Listeria monocytogenes; details: ≥80% inhibition, 24 h
Experimental: as §1, §2, §3, §4

[3] = tested on: L. monocytogenes 164; assay: MIC for biofilm formation (crystal violet staining); assay type: cell-based, Listeria monocytogenes; details: ≥80% prevention, 24 h
Experimental: as §1, §2, §3, §4

[4] = tested on: L. monocytogenes 149; assay: as above; assay type: cell-based, Listeria monocytogenes; details: ≥80% prevention, 24 h
Experimental: as §1, §2, §3, §4

[5] = tested on: E. coli 683/17; assay: MIC for further growth of biofilm cells, preformed biofilm (A625nm); assay type: cell-based, Escherichia coli; details: for MICBC80: ≥80% inhibition, 18 h preformed biofilm, 20 h with substance
Experimental: as §1
(§5) The determination of MICs was performed according to Chlumsky et al.. Briefly, 96-well flat-bottomed microtiter plates were inoculated with 75 µL (for biofilm formation) or 100 µL (for preformed biofilm) of bacterial suspension (A625nm 0.08 to 0.1) in technical triplicates and were then carefully mixed with the dilution series of the test substances (24 h cultivation at 25 °C for S. Infantis, 37 °C for other strains) or were directly cultivated to preform biofilms (18 h). For a positive control of bacterial growth, the inoculum was mixed with a pure sterile medium. Furthermore, the sterile medium was included in the plate as a marker of potential microbial contamination. To evaluate planktonic cells growth (MICPC80) and further growth of biofilm cells (MICBC80), the optical density of the content of the microtiter plates was measured spectrophotometrically at 625 nm before and after 24 h (for biofilm formation) of cultivation or before and after additional 20 h incubation with the tested compound (for preformed biofilm). The difference of A625nm was considered as a measure of the ability of cells to grow in the presence of the tested substances. To evaluate the inhibition of biofilm formation (MICBF80) and reduction in preformed biofilms (MICBR80), biomass was quantified using crystal violet staining, and its metabolic activity (MICBM80 and MICMPB80) was estimated by using the MTT (thiazyl tetrazolium bromide, Sigma-Aldrich, USA) reduction assay, both measured spectrophotometrically at 595 nm.
as §3, §4

[6] = tested on: E. coli 693/17; assay: as above; assay type: cell-based, Escherichia coli; details: for MICBC80: ≥80% inhibition, 18 h preformed biofilm, 20 h with substance
Experimental: as §1, §5, §3, §4

[7] = tested on: L. monocytogenes 164; assay: as above; assay type: cell-based, Listeria monocytogenes; details: ≥80% inhibition, 18 h preformed biofilm, 20 h with substance
Experimental: as §1, §2, §3, §4

[8] = tested on: L. monocytogenes 149; assay: as above; assay type: cell-based, Listeria monocytogenes; details: ≥80% inhibition, 18 h preformed biofilm, 20 h with substance
Experimental: as §1, §2, §3, §4

[9] = tested on: S. aureus 1241; assay: MIC for metabolic activity of preformed biofilm (MTT reduction assay); assay type: cell-based, Staphylococcus aureus; details: ≥80% inhibition, 20 h with substance
Experimental: as §1, §5, §3, §4

[10] = tested on: S. aureus 816; assay: as above; assay type: cell-based, Staphylococcus aureus; details: for MICMPB80: ≥80% inhibition, 20 h with substance
Experimental: as §1, §5, §3, §4

[11] = tested on: S. Infantis S13; assay: as above; assay type: cell-based, Salmonella enterica Infantis; details: for MICMPB80: ≥80% inhibition, 20 h with substance
Experimental: as §1, §5, §3, §4

[12] = tested on: S. Infantis S59; assay: as above; assay type: cell-based, Salmonella enterica Infantis; details: for MICMPB80: ≥80% inhibition, 20 h with substance
Experimental: as §1, §5, §3, §4

[13] = tested on: S. aureus 1241; assay: MIC for biofilm metabolic activity (MTT reduction assay); assay type: cell-based, Staphylococcus aureus; details: ≥80% inhibition, 24 h
Experimental: as §1, §2, §3, §4

[14] = tested on: S. aureus 816; assay: as above; assay type: cell-based, Staphylococcus aureus; details: ≥80% inhibition, 24 h
Experimental: as §1, §2, §3, §4

[15] = tested on: E. coli 683/17; assay: MIC for reduction of preformed biofilm (crystal violet staining); assay type: cell-based, Escherichia coli; details: for maximal achieved inhibition (MICBR80 not reached), biofilm reduction: preformed biofilm, within tested concentrations; for MICBR80: ≥80% reduction of preformed biofilm (18 h), 20 h with substance
Experimental: as §1, §5, §3, §4

[16] = tested on: E. coli 693/17; assay: as above; assay type: cell-based, Escherichia coli; details: for MICBR80: ≥80% reduction of preformed biofilm (18 h), 20 h with substance
Experimental: as §1, §5, §3, §4

[17] = tested on: L. monocytogenes 149; assay: MIC for planktonic cell growth (A625nm); assay type: cell-based, Listeria monocytogenes; details: ≥80% inhibition, 24 h
Experimental: as §1, §2, §3, §4

[18] = tested on: S. Infantis S13; assay: MIC for further growth of biofilm cells, preformed biofilm (A625nm); assay type: cell-based, Salmonella enterica Infantis; details: for MICBC80: ≥80% inhibition, 18 h preformed biofilm, 20 h with substance
Experimental: as §1, §5, §3, §4

[19] = tested on: S. Infantis S59; assay: as above; assay type: cell-based, Salmonella enterica Infantis; details: for MICBC80: ≥80% inhibition, 18 h preformed biofilm, 20 h with substance
Experimental: as §1, §5, §3, §4

[20] = tested on: S. Infantis S13; assay: MIC for planktonic cell growth (A625nm); assay type: cell-based, Salmonella enterica Infantis; details: for MICPC80: ≥80% inhibition, 24 h
Experimental: as §1, §5, §3, §4

[21] = tested on: S. Infantis S59; assay: MIC for planktonic cell growth (A625nm); assay type: cell-based, Salmonella enterica Infantis; details: for MICPC80: ≥80% inhibition, 24 h
Experimental: as §1, §5, §3, §4

Row | SMILES | MICBM80 [1] | MICBM80 [2] | MICBF80 [3] | MICBF80 [4] | MICBC80 [5] | MICBC80 [6] | MICBC80 [7] | MICBC80 [8] | MICMPB80 [9] | MICMPB80 [10] | MICMPB80 [11] | MICMPB80 [12] | MICBM80 [13] | MICBM80 [14] | maximal achieved inhibition (MICBR80 not reached), biofilm reduction [15] | MICBR80 [15] | MICBR80 [16] | MICPC80 [17] | MICBC80 [18] | MICBC80 [19] | other results
1 | CC(=O)c1c(O)c(C)c(O)c2c1OC1=CC(=O)C(C(C)=O)C(=O)C12C (single isomer, unassigned; (+)) [UA, (+)-usnic acid] | 1.96 µg/mL | 1.96 µg/mL | 1.96 µg/mL | 0.98 µg/mL | > 31.3 µg/mL | > 31.3 µg/mL | 1.96 µg/mL | 1.96 µg/mL | 3.91 µg/mL | > 31.3 µg/mL | > 31.3 µg/mL | > 31.3 µg/mL | 0.49 µg/mL | 0.24 µg/mL | 0% | > 31.3 µg/mL | > 31.3 µg/mL | 0.98 µg/mL | > 31.3 µg/mL | > 31.3 µg/mL | maximal achieved inhibition (MICBC80 not reached) ([5]; within tested concentrations): 44%; maximal achieved inhibition (MICBC80 not reached) ([6]; within tested concentrations): 61%; maximal achieved inhibition (MICMPB80 not reached) ([10]; within tested concentrations): 67%; maximal achieved inhibition (MICMPB80 not reached) ([11]; within tested concentrations): 17%; maximal achieved inhibition (MICMPB80 not reached) ([12]; within tested concentrations): 26%; maximal achieved inhibition (MICBR80 not reached), biofilm reduction ([16]; preformed biofilm, within tested concentrations): 0%; maximal achieved inhibition (MICBC80 not reached) ([18]; within tested concentrations): 33%; maximal achieved inhibition (MICBC80 not reached) ([19]; within tested concentrations): 31%; maximal achieved inhibition (MICPC80 not reached) ([20]; within tested concentrations): 25%; MICPC80 [20]: > 31.3 µg/mL; maximal achieved inhibition (MICPC80 not reached) ([21]; within tested concentrations): 31%; MICPC80 [21]: > 31.3 µg/mL
2 | CC(=O)N[C@@H](CS)C(=O)O [NAC, N-Acetyl-L-cysteine] | 6250 µg/mL | 12,500 µg/mL | 6250 µg/mL | 6250 µg/mL | 6250 µg/mL | 3130 µg/mL | 3130 µg/mL | 3130 µg/mL | 6250 µg/mL | 12,500 µg/mL | 12,500 µg/mL | 12,500 µg/mL | 6250 µg/mL | 3130 µg/mL | 68% | > 100,000 µg/mL | 100,000 µg/mL | 3130 µg/mL | 6250 µg/mL | 12,500 µg/mL | MICPC80 [20]: 6250 µg/mL; MICPC80 [21]: 6250 µg/mL
